Measurements reported in PubChem BioAssay (NCI).
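Method: 48-hour compound exposure of cells in 96-well plates, five concentrations, linear interpolation of endpoints. GI50: concentration for 50% inhibition of growth. TGI marks complete inhibition of growth.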

Experiments:
Experiment in all cases: NCI-60 cell line screen, 48 h
LOX IMVI melanoma = tested on: LOX IMVI melanoma
UACC-62 melanoma = tested on: UACC-62 melanoma
MALME-3M melanoma = tested on: MALME-3M melanoma
EKVX NSCLC = tested on: EKVX NSCLC
RXF 393 renal = tested on: RXF 393 renal
SK-OV-3 ovarian = tested on: SK-OV-3 ovarian
HCT-15 colon = tested on: HCT-15 colon
TK-10 renal = tested on: TK-10 renal
HL-60(TB) leukemia = tested on: HL-60(TB) leukemia
MOLT-4 leukemia = tested on: MOLT-4 leukemia

Compound	TGI (LOX IMVI melanoma) [µM]	TGI (UACC-62 melanoma) [µM]	TGI (MALME-3M melanoma) [µM]	TGI (EKVX NSCLC) [µM]	TGI (RXF 393 renal) [µM]	TGI (SK-OV-3 ovarian) [µM]	TGI (HCT-15 colon) [µM]	TGI (TK-10 renal) [µM]	TGI (HL-60(TB) leukemia) [µM]	GI50 (UACC-62 melanoma) [µM]	GI50 (MALME-3M melanoma) [µM]	GI50 (MOLT-4 leukemia) [µM]	TGI (MOLT-4 leukemia) [µM]	GI50 (RXF 393 renal) [µM]	GI50 (SK-OV-3 ovarian) [µM]	GI50 (HCT-15 colon) [µM]	GI50 (TK-10 renal) [µM]	GI50 (HL-60(TB) leukemia) [µM]	GI50 (LOX IMVI melanoma) [µM]	GI50 (EKVX NSCLC) [µM]
CN(C)CCNC(=O)c1cc([N+](=O)[O-])cc2ccc(-c3ccccc3)nc12	30.5	15.7	19.5	> 71.4	22.8	25.5	> 56.6	95.5	21.7											
CN(C)CCNc1cccc2sc3ccc(O)cc3c(=O)c12		2.87	3.13		7.38	14.4	5.09	17.5	3.74	1.43	1.59	0.483	2.81	1.95	3.36	1.43	5.58	1.53		
Cn1cc(NC(=O)c2cc(NC(=O)CCCCCC(=O)Nc3cc(C(=O)Nc4cc(C(=O)NCCC(=N)N)n(C)c4)n(C)c3)cn2C)cc1C(=O)NCCC(=N)N	> 100	> 100	> 100	> 100	> 100	> 100	> 100	> 100	> 100											
CCOC(=O)C(=O)Nc1c(C)cccc1CC	> 100	> 100	> 100	> 100	> 100	> 100		> 100	> 100				> 100							
COC(=O)/C(=N/NC(C)(C)C)C(C(=O)C=C(C)C)C(=O)C(=O)Nc1ccc(Cl)cc1C (centres undefined)		> 100	> 100	> 100		> 100	> 100	> 100	> 100				> 100							
O=C1/C(=C\c2cccs2)Oc2ccccc21	> 100	> 100		> 100	> 100	> 100	> 100	> 100	> 100				> 100							
COc1cc(C(C#N)NNC(=O)c2ccccc2O)ccc1O (centres undefined)	> 100	5.22	> 100		6.3	> 100	> 100	> 100	19.4				> 100							
O=C(c1ccco1)N(C(=S)N1CCN(c2ccccc2)CC1)c1ccccc1	> 100	> 100	> 100		> 100	> 100	> 100	> 100	> 100				> 100							
c1cc(-c2sc(-c3ccncc3)c(-c3ccncc3)c2-c2ccncc2)ccn1	30.8	27.8	32.5	43.9	33.4	54	56.7	32.9					> 100							
Cc1c2ncccc2c(C)c2c1[nH]c1ccccc12	20.8	29.2	30.6	30.7	25.9	31.3	54.3	31.7					6.5							
CC(=O)O/C(C)=C\C(=O)O/N=C(\N)c1ccc(C)cc1	> 100	56.7	71.5	> 100	99.3	> 100		> 100	77.3				> 100							
N#CC1C(N)=NNC1c1ccc(-c2ccc(-c3nc4ccccc4o3)cc2)o1 (centres undefined)	64.7	91.1		81.2		> 100	> 100	74.7	> 100	23.9		> 100	> 100		37.4	32.3	25.5	57.7	23.3	14.6
OCC1OC(N2C=C(c3nc4ccccc4s3)C3C=CC=CC32)C(O)C1O (centres undefined)	18	19		25.4	25.9	> 50	22	21.9	> 50	8.92		> 50	> 50	10.6	28.2	7.92	6.65	21	7.1	6.27
O=c1c(OC/C(=N/O)c2ccccc2)c(-c2ccccc2)oc2ccccc12	19.5	25.2		30.1	> 50	> 50	> 50	22.8	> 50	9.2		12.6	> 50	20.8	20.3	17.1	11.6	12.6	10.5	12.3
O=C1c2cccc3cc([N+](=O)[O-])cc(c23)C(=O)N1CCCN1CCN(CCCN2C(=O)c3cccc4cc([N+](=O)[O-])cc(c34)C2=O)CC1		1.65	25.3	> 100	1.76	46.8	> 100	16	12.8				> 100							
COc1ccc(/C=[N+](\[O-])[C@H](COCc2ccccc2)c2ccccc2)cc1	> 100		> 100	> 100	> 100	> 100		> 100	77.2				> 100							
C=C1C(=O)O[C@H]2[C@H]1CC/C(COC(=O)c1ccc(C(=O)O)s1)=C\CC[C@@]1(C)O[C@@H]21	3.08	3.23	4.25	5.68	3.92	25.1	4.72	3.44		1.65	2.44	2.38	7.2	1.97	12.3	1.65	1.64		1.49	2.21
c1cncc(C2c3[nH]c4ccccc4c3CCN2CCN2CCCCC2)c1 (centres undefined)	> 100	> 100		> 100		> 100	> 100	> 100	> 100				> 100							
CCOC(=O)/C(=C\c1ccc(CO)o1)P(=O)(OCC)OCC	41.3	> 100	50	> 100	71.1	> 100	33.2	> 100					> 100							
